Columns and labels:
[1] = system: LISN cell (mouse 3T3 fibroblasts transduced with human IGF-1R) tumors; assay: In vivo efficacy, mice bearing LISN cell tumors; conditions: for tumor growth inhibition at day 21: LISN tumors (~362 mm^3)
Protocol: E. In Vivo Efficacy—Mouse Models
The efficacy of the compounds of Examples 57 and 58 were assessed together in an in vivo efficacy experiment performed on mice bearing LISN cell (mouse 3T3 fibroblasts transduced with human IGF-1R) tumors. Fifty six female nude mice bearing subcutaneous LISN cell tumors were measured for tumor size and body weight and block randomized into seven groups of eight mice with an equal average tumor volume of approximately 200 mm3. Mice were dosed with either vehicle (20% SBE pH3.5), Example 57 or Example 58. The dosing schedules for each compound were based on previous experiments with the compounds and doses chosen to give the highest tumor growth inhibition and a dose response. Example 58 was dosed at 30, 100 and 300 mg/kg QD for 21 days while Example 57 was dosed at 30 mg/kg QD for 21 days, 15 mg/kg BID for 21 days and 30 mg/kg QD×3 days/week for 3 weeks.
The tumors on mice being treated with vehicle grew with the expected exponential growth throughout the 21 day study. […] The lower dose of 30 mg/kg of Example 58 achieved 28% tumor growth inhibition.
The efficacy of the compounds of Examples 237 and 219 were assessed together in an in vivo efficacy experiment performed on mice bearing LISN cell (mouse 3T3 fibroblasts transduced with human IGF-1R) tumors. Sixty four female nude mice bearing subcutaneous LISN cell tumors were measured for tumor size and body weight and block randomized into eight groups of eight mice with an equal average tumor volume of approximately 362 mm^3. Mice were dosed with either vehicle (20% SBE pH3.5), Example 237 or Example 219. The dosing schedules for each compound were based on previous experiments with the compounds and doses chosen to give the highest tumor growth inhibition and a dose response. Example 237 was administered at 30 and 60 mg/kg QD for 21 days and 30 mg/kg BID for 21 days while Example 219 was administered at 50 and 100 mg/kg QD for 21 days, 25 and 50 mg/kg BID for 21 days.
The tumors on mice being treated with vehicle grew with the expected exponential growth throughout the 21 day study. […] The lower dose of 30 mg/kg QD of Example 237 achieved 15% tumor growth inhibition at day 21 (note: 2 animals were euthanized prior to the last measurement). […] This recovered to 3% by the end of dosing and fully recovered after dosing was concluded. […] This recovered fully within 4 days after the completion of dosing.

[2] = system: Colo-205 tumors (colon carcinoma cell line); assay: In vivo efficacy, Colo-205 tumor bearing mice; set-up: species or system mouse; conditions: Colo-205 study
Protocol: (§1) In addition to the LISN xenograft efficacy studies, Example 57 has also been assessed in vivo in two other mouse models of cancer, including: Colo-205 tumor bearing mice (colon carcinoma cell line) and BT474 tumor bearing mice (breast carcinoma cell line). Forty female nude mice bearing Colo-205 tumors (average tumor size of 200 mm3) were randomized into five groups of eight mice and dosed with either vehicle (20% SBE pH3.5) or Example 57 at 100, 30, 10 mg/kg QD or 30 mg/kg BID for 21 days. The groups of mice dosed with the higher doses of Example 57 (100 mg/kg QD and 30 mg/kg BID) lost greater than 20% body weight within 10 days of dosing so were taken off the study and allowed to recover. […] The higher doses of 100 mg/kg QD×10 and 30 mg/kg BID×10 achieved 72 and 49% tumor growth inhibition respectively.

[3] = system: BT474 cell tumors (breast carcinoma cell line); assay: In vivo efficacy, BT474 tumor bearing mice; set-up: species or system mouse; conditions: BT474 study, all groups (60, 30, 15 mg/kg QD, 15 mg/kg BID)
Protocol: as §1
Due to the body weight loss seen with the higher doses in the Colo-205 xenograft efficacy study, the dosing regime was altered for the follow up BT474 study. Forty female nude mice bearing subcutaneous BT474 cell tumors (average tumor size of 200 mm3) were randomized into five groups each containing eight mice and dosed with either vehicle (20% SBE pH3.5) or Example 57 at 60, 30 or 15 mg/kg QD or 15 mg/kg BID for 21 days. Note the maximal QD dose was reduced from 100 mg/kg to 60 mg/kg and the BID dose reduced from 30 mg/kg to 15 mg/kg. […]

[4] = LISN study (~362 mm^3), 100 mg/kg and 50 mg/kg QD

COc1cc(N2CCC(N3CCN(CCF)CC3)CC2)ccc1Nc1nccc(-c2c(-c3cccc(C(=O)Nc4c(F)cccc4F)c3)nc3ccccn23)n1 [Example 57, N-(2,6-difluorophenyl)-3-[3-(2-{[4-{4-[4-(2-fluoroethyl)-1-piperazinyl]-1-piperidinyl}-2-(methyloxy)phenyl]amino}-4-pyrimidinyl)imidazo[1,2-a]pyridin-2-yl]benzamide]
body weight loss ([1]; LISN study, 30 mg/kg QD and 15 mg/kg BID treated groups, 21 days): no body weight loss
tolerability ([1]; LISN study, 30 mg/kg QD and 15 mg/kg BID, 21 days): well tolerated
body weight loss ([1]; LISN study, 30 mg/kg QD×3 days/week for 3 weeks, over the three consecutive days of dosing, recovered in the four days between doses): significant body weight loss
body weight lost ([2]; 100 mg/kg QD and 30 mg/kg BID, within 10 days of dosing): greater than 20%
body weight loss ([2]; 30 and 10 mg/kg QD×21): no body weight loss
body weight loss [3]: no body weight loss

COc1cc(N2CCC(N3CCN(S(C)(=O)=O)CC3)CC2)ccc1Nc1nccc(-c2c(-c3cccc(C(=O)Nc4c(F)cccc4F)c3)nc3ccccn23)n1 [Example 58, N-(2,6-difluorophenyl)-3-(3-{2-[(2-(methyloxy)-4-{4-[4-(methylsulfonyl)-1-piperazinyl]-1-piperidinyl}phenyl)amino]-4-pyrimidinyl}imidazo[1,2-a]pyridin-2-yl)benzamide]
body weight loss ([1]; LISN study, 30, 100 and 300 mg/kg QD for 21 days, throughout the study): no effect of Example 58 on body weight loss

CCOc1cc(N2CCC(CCS(C)(=O)=O)CC2)c(C)cc1Nc1nccc(-c2c(-c3ccc(OC)c(C(=O)Nc4c(F)cccc4F)c3)nc3ccccn23)n1 [Example 219, N-(2,6-difluorophenyl)-5-(3-{2-[(2-(ethyloxy)-5-methyl-4-{4-[2-(methylsulfonyl)ethyl]-1-piperidinyl}phenyl)amino]-4-pyrimidinyl}imidazo[1,2-a]pyridin-2-yl)-2-(methyloxy)benzamide]
time to full recovery of body weight after the completion of dosing ([1]; LISN study (~362 mm^3), 25 mg/kg BID and 50 mg/kg BID): ≤ 4 days
body weight loss ([1]; LISN study (~362 mm^3), 25 mg/kg BID for 21 days): 4%
body weight loss ([1]; LISN study (~362 mm^3), 50 mg/kg BID for 21 days): 6%
body weight loss [1, 4]: no body weight loss
tolerability [1, 4]: well tolerated

CCc1cc(Nc2nccc(-c3c(-c4ccc(OC)c(C(=O)Nc5c(F)cccc5F)c4)nc4ccccn34)n2)c(OC)cc1N1CCC(N2CCN(S(C)(=O)=O)CC2)CC1 [Example 237, N-(2,6-difluorophenyl)-5-(3-{2-[(5-ethyl-2-(methyloxy)-4-{4-[4-(methylsulfonyl)-1-piperazinyl]-1-piperidinyl}phenyl)amino]-4-pyrimidinyl}imidazo[1,2-a]pyridin-2-yl)-2-(methyloxy)benzamide]
initial body weight loss ([1]; LISN study (~362 mm^3), 30 mg/kg BID): 6%
body weight loss by the end of dosing ([1]; LISN study (~362 mm^3), 30 mg/kg BID, fully recovered after dosing was concluded): 3%
body weight loss ([1]; LISN study (~362 mm^3), other groups (30 and 60 mg/kg QD)): no effect on body weight loss
tumor growth inhibition at day 21 ([1]; 30 mg/kg BID for 21 days): 84%
tumor growth inhibition at day 21 ([1]; 30 mg/kg QD for 21 days, 2 animals euthanized prior to the last measurement): 15%
tumor growth inhibition at day 21 ([1]; 60 mg/kg QD for 21 days): 41%
